Experimental data: PubChem BioAssay (NCI)
“And” between values parts separate entries of the source, which are not always exact repeats. Equal values may be shown once.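 Compound exposure: 48 hours, 5 concentrations, 96-well plates. Here, GI50 denotes the concentration required for 50% inhibition of growth. TGI denotes the concentration required for complete inhibition of growth.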

Assays:
Test in all cases: NCI-60 cell line screen, 48 h
CCRF-CEM leukemia = tested on: CCRF-CEM leukemia
EKVX NSCLC = tested on: EKVX NSCLC
HOP-92 NSCLC = tested on: HOP-92 NSCLC
MOLT-4 leukemia = tested on: MOLT-4 leukemia
NCI-H23 lung = tested on: NCI-H23 lung
OVCAR-4 ovarian = tested on: OVCAR-4 ovarian
RXF 393 renal = tested on: RXF 393 renal
SF-268 CNS = tested on: SF-268 CNS
SF-539 CNS = tested on: SF-539 CNS
SK-MEL-2 melanoma = tested on: SK-MEL-2 melanoma

| SMILES | GI50 (CCRF-CEM leukemia) | TGI (CCRF-CEM leukemia) | GI50 (EKVX NSCLC) | TGI (EKVX NSCLC) | GI50 (HOP-92 NSCLC) [µM] | TGI (HOP-92 NSCLC) | GI50 (MOLT-4 leukemia) | TGI (MOLT-4 leukemia) | GI50 (NCI-H23 lung) | TGI (NCI-H23 lung) | GI50 (OVCAR-4 ovarian) | TGI (OVCAR-4 ovarian) | GI50 (RXF 393 renal) | TGI (RXF 393 renal) | GI50 (SF-268 CNS) | TGI (SF-268 CNS) | GI50 (SF-539 CNS) | TGI (SF-539 CNS) | GI50 (SK-MEL-2 melanoma) | TGI (SK-MEL-2 melanoma) |
| --- | --- | --- | --- | --- | --- | --- | --- | --- | --- | --- | --- | --- | --- | --- | --- | --- | --- | --- | --- | --- |
| COc1cc(/C=C2\C(=O)N(c3c(Cl)cccc3Cl)c3ccccc32)cc(OC)c1O | 0.555 µM | 19.9 µM | 5.23 µM | 25.1 µM | 1.97 | 11 µM | 0.455 µM | 20.4 µM | 1.47 µM | 14.4 µM | 1.69 µM | 12.1 µM | 1.86 µM | 11.6 µM | 0.413 µM | 14.6 µM | 0.531 µM | 17.3 µM | 1.23 µM | 15.4 µM |
| Nc1ccc(-c2ccc(-c3nc4ccccc4[nH]3)cc2)cc1 | 2.77 µM | > 78.7 µM | 1.47 µM | > 78.2 µM | 18.6 | 71.2 µM | 9.94 µM | > 58.2 µM | 10.6 µM | > 90.6 µM | 21.1 µM | 79.9 µM | 23.5 µM | 82.9 µM | 2.76 µM | > 100 µM | 0.208 µM |  | 1.88 µM | > 100 µM |
| N/C(=N\C(=S)N1CCCCC1)N1CCCCC1 |  | > 100 µM |  | > 100 µM |  | > 100 µM |  | > 100 µM |  | > 100 µM |  | > 100 µM |  | > 100 µM |  | > 100 µM |  | > 100 µM |  | > 100 µM |
| O=C1C=C(Br)C(=O)C(Br)=C1 |  | > 81.6 µM |  | > 100 µM |  | > 100 µM |  | > 86.2 µM |  | > 100 µM |  | > 100 µM |  | > 100 µM |  | > 100 µM |  | > 100 µM |  | > 100 µM |
| O=C1C(Nc2ccccn2)=C(I)C(=O)c2ncccc21 | 0.552 µM | 5.19 µM | 1.62 µM | 3.3 µM | 1.65 | 4.36 µM | 0.702 µM | 4.66 µM | 0.584 µM | 2.61 µM | 1.07 µM | 2.27 µM | 1.25 µM | 2.75 µM | 1.34 µM | 3.8 µM | 1.37 µM | 2.69 µM | 1.76 µM | 3.51 µM |
| CC/C(=C(\c1ccc(O)cc1)c1ccc(OCCNC)cc1)c1ccccc1 | 2.96 µM and 2.56 µM and 2.75 µM | 11 µM and 8.6 µM and 7.58 µM | 2.41 µM and 2.04 µM | 8.86 µM and 5.59 µM |  | 2.04 µM and 2.96 µM and 7.46 µM | 3.22 µM and 1.94 µM and 2.98 µM | 8.37 µM and 5.92 µM and 8.57 µM | 2.13 µM and 1.97 µM and 2.1 µM | 4.8 µM and 4.29 µM and 4.45 µM | 4.62 µM and 4.21 µM | 18.5 µM and 15 µM | 1.5 µM and 1.63 µM and 1.37 µM | 3.68 µM and 3.3 µM and 2.8 µM | 2.25 µM and 1.74 µM and 2.06 µM | 5.24 µM and 3.76 µM and 4.74 µM | 1.74 µM and 1.7 µM and 1.59 µM | 3.15 µM and 3.09 µM and 3.01 µM | 2.04 µM and 1.85 µM and 2.1 µM | 4.02 µM and 3.65 µM and 3.85 µM |
| CC(NC1CCC[C@H]1O)c1ccccc1 (mixture of isomers) |  | > 100 µM |  | > 100 µM |  | > 100 µM |  | > 100 µM |  | > 100 µM |  | > 100 µM |  | > 100 µM |  | > 100 µM |  | > 100 µM |  | > 100 µM |
| C[C@]12CC[C@H]3[C@@H](C[C@@H]4SC(Nc5cccc(F)c5)=N[C@@]45CC(=O)CC[C@]35C)[C@@H]1CCC2=O | 1.9 µM | > 100 µM | 2.5 µM | 18.5 µM | 2.25 | 4.17 µM | 1.68 µM | 28.3 µM | 2.27 µM | 9.08 µM | 2.71 µM | > 100 µM | 1.45 µM | 3.25 µM | 3.09 µM | 11.1 µM | 1.34 µM | 2.94 µM | 1.86 µM | 5.2 µM |
| O=C(C#Cc1c[nH]c(=O)[nH]c1=O)c1ccccc1 |  | 7.8 µM |  | 24.9 µM |  | 27 µM |  | 7.96 µM |  | 27.6 µM |  | 27.1 µM |  | 6.05 µM |  | 26.8 µM |  | 14.5 µM |  | 24.8 µM |
| O=S(=O)(Nc1ccc(Cl)c(C(F)(F)F)c1)c1ccc(-c2cnc(C3CC3)o2)cc1 | 0.285 µM | > 25.1 µM | 1.34 µM | 9.29 µM | 1.04 | 4.16 µM | 0.622 µM | 14.1 µM | 1.37 µM | 6.37 µM | 1.63 µM | 9.75 µM | 0.381 µM | 1.66 µM | 1.24 µM | 10.8 µM | 0.452 µM | 2.16 µM | 0.343 µM | 3.67 µM |
| Cc1oc2c(c1C(=O)c1ccccc1)C(=O)c1ccccc1C2=O |  | 5.76 µM |  | 29.6 µM |  | 4.65 µM |  | 6.38 µM |  | 8.36 µM |  | 9.95 µM |  | 8.2 µM |  | 32.8 µM |  | 24.7 µM |  | 9.04 µM |
| CCOC(=O)c1c(C)c2c(n1C)CSc1cc(S(=O)(=O)c3ccccc3)c(=O)[nH]c1-2 | 27.5 µM | > 100 µM | 14.6 µM | 74.9 µM | 1.11 | 28.5 µM | 11.2 µM | 98.6 µM | 28.6 µM | > 100 µM | 27.8 µM | > 100 µM | 44.4 µM | > 100 µM | 27.8 µM | > 100 µM | 24.5 µM | > 100 µM | 36.2 µM | > 100 µM |
| O=C1CCC(=O)c2cc(Br)ccc2N1 |  | > 100 µM |  | > 100 µM |  | > 100 µM |  | > 100 µM |  | > 100 µM |  | > 100 µM |  | > 100 µM |  | > 100 µM |  | > 100 µM |  | > 100 µM |
| COC(=O)c1c2c(c(C)[n+]([O-])c1C)C(=O)C(NCc1ccc(F)c(Cl)c1)=CC2=O | 3.03 µM | 22.8 µM | 1.93 µM | 5.18 µM | 2.52 | 5.79 µM | 2.42 µM | 7.2 µM | 1.74 µM | 4.77 µM | 0.652 µM | 2.07 µM | 1.73 µM | 4.05 µM | 2.64 µM | 13.2 µM | 1.69 µM | 3.32 µM | 2.02 µM | 5.06 µM |
| CS(=O)(=O)c1ccc(C(F)(F)F)cc1NC(=O)Nc1cnc(Oc2ccc(-c3cc(Cl)cnc3N)cc2)nc1 | 3.22 µM | > 100 µM | 2.57 µM | > 37.5 µM | 1.75 | 5.12 µM | 2.12 µM | 6.53 µM | 2.56 µM | 7.69 µM | 2.9 µM | 12.4 µM | 1.79 µM | 4.61 µM | 2.39 µM | 10.3 µM | 1.94 µM | 4.96 µM | 2.34 µM | 5.03 µM |
| O=C1Nc2ccccc2SC1C1SC(=S)N(Cc2ccccc2)C1=O (stereo not drawn) | 1.76 µM | > 29.8 µM | 21.7 µM | 53.2 µM | 4.21 | 24.7 µM | 3.57 µM | > 36 µM | 11.8 µM | 35.2 µM | 13.9 µM | 33.7 µM | 4.21 µM | > 27.7 µM | 3.37 µM | 11.4 µM | 3.79 µM | 12.8 µM | 18.6 µM | 37.4 µM |
| O=C(Nc1ccc(-n2cc(-c3ccncc3)c(-c3ccc(Cl)c(O)c3)n2)cc1)c1cc(Cl)cc(Cl)c1 | 4.25 µM | > 100 µM | 50.7 µM | > 100 µM | 5.57 | > 100 µM | 5.71 µM | > 100 µM | 7.41 µM | > 100 µM | > 94 µM | > 100 µM | 0.291 µM | 0.879 µM | > 100 µM | > 100 µM | 1.88 µM | > 100 µM | 5.24 µM | > 100 µM |
| O=C(Oc1ccc([N+](=O)[O-])cc1)N1CCC(C(O)(c2ccc3c(c2)OCO3)c2ccc3c(c2)OCO3)CC1 | > 100 µM | > 100 µM | > 100 µM | > 100 µM | > 52.3 | > 100 µM | > 100 µM | > 100 µM | > 100 µM | > 100 µM | > 100 µM | > 100 µM | > 100 µM | > 100 µM | > 100 µM | > 100 µM | > 100 µM | > 100 µM | > 100 µM | > 100 µM |
| C#C[C@]1(O)CC[C@H]2[C@@H]3CC=C4c5nc(Nc6ccc(OC)cc6OC)sc5CC[C@]4(C)[C@H]3CC[C@@]21C | 0.544 µM | 11 µM | 2.66 µM | 17.8 µM | 2.1 | 7 µM | 0.46 µM | 4.69 µM | 2.18 µM | 12 µM | 4.44 µM | > 100 µM | 0.262 µM | 0.608 µM | 1.75 µM | 6.65 µM | 0.374 µM | 1.7 µM | 1.23 µM | 6.39 µM |
| CNC(=O)OCc1nc(S(C)=O)n(C)c1COC(=O)NC (stereo not drawn) |  | > 100 µM |  | > 100 µM |  | > 77.8 µM |  | > 100 µM |  | > 100 µM |  | > 71.6 µM |  | > 100 µM |  | > 100 µM |  | > 100 µM |  | > 100 µM |
| C=CC(=O)Nc1cc2c(Nc3ccc(OCc4ccccn4)c(Cl)c3)ncnc2cc1OCCN1CCOCC1 | 2.98 µM | > 100 µM | 0.775 µM | > 73.2 µM | 1.02 | 9.06 µM | 3.02 µM | > 85.1 µM | 5.24 µM | 20 µM | 5.9 µM | > 100 µM | 0.784 µM | 3.8 µM | 2.87 µM | > 65.9 µM | 2.63 µM | > 100 µM | 6.11 µM | 37.5 µM |
